Results: ChEMBL document CHEMBL3885881, “DrugMatrix”

Organism: Rattus norvegicus
Experiment: DrugMatrix - Regimen: Daily Repeat
Format: toxicity, organism-based, Sprague-Dawley
Design: regimen Daily Repeat, gender Male, age 6-8 weeks
Conditions: in vivo, po, route oral GAVAGE, vehicle 100 % WATER; for ABSOLUTE BASOPHIL / ABSOLUTE EOSINOPHIL / ABSOLUTE LYMPHOCYTE / ABSOLUTE MONOCYTE / ABSOLUTE SEGMENTED NEUTROPHIL / BASOPHIL / EOSINOPHIL / ERYTHROCYTE COUNT / HEMATOCRIT / HEMOGLOBIN / LEUKOCYTE COUNT / LYMPHOCYTE / MEAN CORPUSCULAR HEMOGLOBIN / MEAN CORPUSCULAR HEMOGLOBIN CONCENTRATION / MEAN CORPUSCULAR VOLUME / MONOCYTE / NEUTROPHIL / NUCLEATED RED BLOOD CELLS / PLATELET COUNT: tissue Blood; for ALANINE AMINOTRANSFERASE / ALBUMIN / ALKALINE PHOSPHATASE / ASPARTATE AMINOTRANSFERASE / BLOOD UREA NITROGEN / CARBON DIOXIDE / CHLORIDE / CHOLESTEROL / CREATINE PHOSPHOKINASE / CREATININE / GLUCOSE / LACTATE DEHYDROGENASE / LIPASE / PHOSPHORUS / POTASSIUM / SODIUM / TOTAL BILIRUBIN / TOTAL PROTEIN / URIC ACID: tissue Plasma
[1] = 0 mg/kg, 72 h, dose level Control, time 3 day
[2] = 0 mg/kg, 120 h, dose level Control, time 5 day
[3] = […], 72 h, dose 0.025 mg/Kg, dose level Low, time 3 day
[4] = […], 72 h, dose 0.25 mg/Kg, dose level High, time 3 day

## C[C@@H]1C[C@@H]([C@H](O)CC2CC(=O)NC(=O)C2)C(=O)[C@@H](C)C1 [CYCLOHEXIMIDE]
[1]
  ABSOLUTE BASOPHIL: 0 CELLS/uL
  ABSOLUTE EOSINOPHIL: 25 CELLS/uL
  ABSOLUTE LYMPHOCYTE: 14357 CELLS/uL
  ABSOLUTE MONOCYTE: 456.33 CELLS/uL
  ABSOLUTE SEGMENTED NEUTROPHIL: 1461.67 CELLS/uL
  BASOPHIL: 0%
  EOSINOPHIL: 0.17%
  ERYTHROCYTE COUNT: 5.85 x10E6/uL
  HEMATOCRIT: 37.62%
  HEMOGLOBIN: 13.87 G/DL
  LEUKOCYTE COUNT: 16.3 x10E3/uL
  LYMPHOCYTE: 88%
  MEAN CORPUSCULAR HEMOGLOBIN: 23.68 pg
  MEAN CORPUSCULAR HEMOGLOBIN CONCENTRATION: 36.88 G/DL
  MEAN CORPUSCULAR VOLUME: 64.23 fL
  MONOCYTE: 2.83%
  NEUTROPHIL: 9%
  NUCLEATED RED BLOOD CELLS: 0 /100WBC
  PLATELET COUNT: 1125.33 x10E3/uL
  ALANINE AMINOTRANSFERASE: 49.67 u/L
  ALBUMIN: 4.23 G/DL
  ALKALINE PHOSPHATASE: 400.83 u/L
  ASPARTATE AMINOTRANSFERASE: 89.17 u/L
  BLOOD UREA NITROGEN: 16 mg/dL
  CARBON DIOXIDE: 31.83 mmol/L
  CHLORIDE: 99 MEQ/L
  CHOLESTEROL: 76 mg/dL
  CREATINE PHOSPHOKINASE: 777.67 u/L
  CREATININE: 0.22 mg/dL
  GLUCOSE: 158.33 mg/dL
  LACTATE DEHYDROGENASE: 186.17 u/L
  LIPASE: 9.33 u/L
  PHOSPHORUS: 12.95 mg/dL
  POTASSIUM: 7.01 MEQ/L
  SODIUM: 141.53 MEQ/L
  TOTAL BILIRUBIN: 0.18 mg/dL
  TOTAL PROTEIN: 6.08 G/DL
  URIC ACID: 1.77 mg/dL
[2]
  ABSOLUTE BASOPHIL: 0 CELLS/uL
  ABSOLUTE EOSINOPHIL: 0 CELLS/uL
  ABSOLUTE LYMPHOCYTE: 8994.5 CELLS/uL
  ABSOLUTE MONOCYTE: 122.33 CELLS/uL
  ABSOLUTE SEGMENTED NEUTROPHIL: 666.5 CELLS/uL
  BASOPHIL: 0%
  EOSINOPHIL: 0%
  ERYTHROCYTE COUNT: 5.74 x10E6/uL
  HEMATOCRIT: 35.17%
  HEMOGLOBIN: 13.28 G/DL
  LEUKOCYTE COUNT: 9.78 x10E3/uL
  LYMPHOCYTE: 92.33%
  MEAN CORPUSCULAR HEMOGLOBIN: 23.15 pg
  MEAN CORPUSCULAR HEMOGLOBIN CONCENTRATION: 37.8 G/DL
  MEAN CORPUSCULAR VOLUME: 61.27 fL
  MONOCYTE: 1.33%
  NEUTROPHIL: 6.33%
  NUCLEATED RED BLOOD CELLS: 0 /100WBC
  PLATELET COUNT: 1117 x10E3/uL
  ALANINE AMINOTRANSFERASE: 47.83 u/L
  ALBUMIN: 4.33 G/DL
  ALKALINE PHOSPHATASE: 414.5 u/L
  ASPARTATE AMINOTRANSFERASE: 77.5 u/L
  BLOOD UREA NITROGEN: 17 mg/dL
  CARBON DIOXIDE: 32.33 mmol/L
  CHLORIDE: 99.33 MEQ/L
  CHOLESTEROL: 76.33 mg/dL
  CREATINE PHOSPHOKINASE: 363.67 u/L
  CREATININE: 0.25 mg/dL
  GLUCOSE: 173.5 mg/dL
  LACTATE DEHYDROGENASE: 129.33 u/L
  LIPASE: 9.17 u/L
  PHOSPHORUS: 11.52 mg/dL
  POTASSIUM: 5.73 MEQ/L
  SODIUM: 143.85 MEQ/L
  TOTAL BILIRUBIN: 0.2 mg/dL
  TOTAL PROTEIN: 6.43 G/DL
  URIC ACID: 0.97 mg/dL
[3]
  ABSOLUTE BASOPHIL: 0 CELLS/uL
  ABSOLUTE EOSINOPHIL: 0 CELLS/uL
  ABSOLUTE LYMPHOCYTE: 12322.33 CELLS/uL
  ABSOLUTE MONOCYTE: 322 CELLS/uL
  ABSOLUTE SEGMENTED NEUTROPHIL: 1589 CELLS/uL
  BASOPHIL: 0%
  EOSINOPHIL: 0%
  ERYTHROCYTE COUNT: 5.38 x10E6/uL
  HEMATOCRIT: 34.5%
  HEMOGLOBIN: 12.73 G/DL
  LEUKOCYTE COUNT: 14.23 x10E3/uL
  LYMPHOCYTE: 86.67%
  MEAN CORPUSCULAR HEMOGLOBIN: 23.63 pg
  MEAN CORPUSCULAR HEMOGLOBIN CONCENTRATION: 36.93 G/DL
  MEAN CORPUSCULAR VOLUME: 64 fL
  MONOCYTE: 2.33%
  NEUTROPHIL: 11%
  NUCLEATED RED BLOOD CELLS: 0 /100WBC
  PLATELET COUNT: 1165.33 x10E3/uL
[4]
  ABSOLUTE BASOPHIL: 0 CELLS/uL
  ABSOLUTE EOSINOPHIL: 0 CELLS/uL
  ABSOLUTE LYMPHOCYTE: 15128.33 CELLS/uL
  ABSOLUTE MONOCYTE: 349 CELLS/uL
  ABSOLUTE SEGMENTED NEUTROPHIL: 956 CELLS/uL
  BASOPHIL: 0%
  EOSINOPHIL: 0%
  ERYTHROCYTE COUNT: 5.63 x10E6/uL
  HEMATOCRIT: 36.7%
  HEMOGLOBIN: 13.27 G/DL
  LEUKOCYTE COUNT: 16.43 x10E3/uL
  LYMPHOCYTE: 91.67%
  MEAN CORPUSCULAR HEMOGLOBIN: 23.6 pg
  MEAN CORPUSCULAR HEMOGLOBIN CONCENTRATION: 36.17 G/DL
  MEAN CORPUSCULAR VOLUME: 65.3 fL
  MONOCYTE: 2%
  NEUTROPHIL: 6.33%
  NUCLEATED RED BLOOD CELLS: 0 /100WBC
  PLATELET COUNT: 1150.67 x10E3/uL
